From ChEMBL document CHEMBL5223139, “Synthesis of 1-(5-(4-chlorophenyl)-1-(2,4-dichlorophenyl)-4-methyl-1H-pyrazol-3-yl)-2-morpholinoethane-1,2-dione analogues and their inhibitory activities with reduced cytotoxicity in lipopolysaccharide-induced BV2 cells” (Bioorg Med Chem Lett, 2023)
The source made the active and inactive calls. The rule behind the calls is not given here.

Legend:
[1] = Cytotoxicity against mouse BV-2 cells assessed as cell viability at 5 uM incubated for 24 hrs by MTT assay relative to control; type: toxicity, cell-based; settings: read-out: Activity
[2] = Cytotoxicity against mouse BV-2 cells assessed as cell viability at 10 uM incubated for 24 hrs by MTT assay relative to control; type: toxicity, cell-based; settings: read-out: Activity
[3] = Inhibition of LPS-induced NO production in mouse BV-2 cells at 5 uM incubated for 24 hrs by Griess reagent based method relative to control; type: functional
[4] = Inhibition of LPS-induced NO production in mouse BV-2 cells at 10 uM incubated for 24 hrs by Griess reagent based method relative to control; type: functional
[5] = test system: BV-2; test: Inhibition of NF-kappaB activation in LPS-stimulated mouse BV-2 cells assessed as reduction in phosphorylated IkappaB-alpha level pretreated for 30 mins followed by LPS stimulation by Western blot analysis; type: cell-based; settings: dose 5-20 µM
[6] = test system: BV-2; test: Antiinflammatory activity in LPS-induced mouse BV-2 cells assessed as reduction in iNOS mRNA expression pretreated for 1 hr followed by LPS stimulation and measured after 6 hrs by RT-PCR analysis; type: functional, cell-based; settings: dose 5-20 µM, time 7.0 hrs
[7] = test system: BV-2; test: Antiinflammatory activity in LPS-induced mouse BV-2 cells assessed as reduction in TNF-alpha mRNA expression pretreated for 1 hr followed by LPS stimulation and measured after 6 hrs by RT-PCR analysis; type: functional, cell-based; settings: dose 5-20 µM, time 7.0 hrs
[8] = test system: BV-2; test: Inhibition of NF-kappaB activation in LPS-stimulated mouse BV-2 cells assessed as reduction in phosphorylated p65 level pretreated for 30 mins followed by LPS stimulation by Western blot analysis; type: cell-based; settings: dose 5-20 µM
[9] = target: c-Jun N-terminal kinase (Mus musculus) (UniProt Q91Y86+Q9WTU6+Q61831); test: Inhibition of LPS-induced JNK phosphorylation in mouse BV-2 cells at 5 to 20 uM pretreated for 30 mins followed by LPS stimulation by Western blot analysis; type: cell-based; settings: dose 5-20 µM
[10] = target: MAP kinase p38 (Mus musculus) (UniProt P47811+O08911+Q9WUI1+Q9Z1B7); test: Inhibition of LPS-induced p38 phosphorylation in mouse BV-2 cells at 5 to 20 uM pretreated for 30 mins followed by LPS stimulation by Western blot analysis; type: cell-based; settings: dose 5-20 µM
[11] = test system: BV-2; test: Antiinflammatory activity in LPS-induced mouse BV-2 cells assessed as reduction in COX-2 protein expression pretreated for 1 hr followed by LPS stimulation and measured after 18 hrs by Western blot analysis; type: functional, cell-based; settings: dose 5-20 µM, time 19.0 hrs
[12] = test system: BV-2; test: Antiinflammatory activity in LPS-induced mouse BV-2 cells assessed as reduction in IL-6 mRNA expression pretreated for 1 hr followed by LPS stimulation and measured after 6 hrs by RT-PCR analysis; type: functional, cell-based; settings: dose 5-20 µM, time 7.0 hrs
[13] = test system: BV-2; test: Antiinflammatory activity in LPS-induced mouse BV-2 cells assessed as reduction in IL-1beta mRNA expression pretreated for 1 hr followed by LPS stimulation and measured after 6 hrs by RT-PCR analysis; type: functional, cell-based; settings: dose 5-20 µM, time 7.0 hrs
[14] = test system: BV-2; test: Antiinflammatory activity in LPS-induced mouse BV-2 cells assessed as reduction in iNOS protein expression pretreated for 1 hr followed by LPS stimulation and measured after 18 hrs by Western blot analysis; type: functional, cell-based; settings: dose 5-20 µM, time 19.0 hrs
[15] = Inhibition of LPS-induced NO production in mouse BV-2 cells incubated for 24 hrs by Griess reagent based method; type: functional, cell-based; settings: BV-2, 24 h
[16] = test system: BV-2; test: Antiinflammatory activity in LPS-induced mouse BV-2 cells assessed as reduction in COX-2 mRNA expression pretreated for 1 hr followed by LPS stimulation and measured after 6 hrs by RT-PCR analysis; type: functional, cell-based; settings: dose 5-20 µM, time 7.0 hrs
[17] = test system: BV-2; test: Inhibition of LPS-induced ERK phosphorylation in mouse BV-2 cells pretreated for 30 mins followed by LPS stimulation by Western blot analysis; type: cell-based; settings: dose 5-20 µM

c-Jun N-terminal kinase (Mus musculus), sequence (Q61831 whole entry, looked up): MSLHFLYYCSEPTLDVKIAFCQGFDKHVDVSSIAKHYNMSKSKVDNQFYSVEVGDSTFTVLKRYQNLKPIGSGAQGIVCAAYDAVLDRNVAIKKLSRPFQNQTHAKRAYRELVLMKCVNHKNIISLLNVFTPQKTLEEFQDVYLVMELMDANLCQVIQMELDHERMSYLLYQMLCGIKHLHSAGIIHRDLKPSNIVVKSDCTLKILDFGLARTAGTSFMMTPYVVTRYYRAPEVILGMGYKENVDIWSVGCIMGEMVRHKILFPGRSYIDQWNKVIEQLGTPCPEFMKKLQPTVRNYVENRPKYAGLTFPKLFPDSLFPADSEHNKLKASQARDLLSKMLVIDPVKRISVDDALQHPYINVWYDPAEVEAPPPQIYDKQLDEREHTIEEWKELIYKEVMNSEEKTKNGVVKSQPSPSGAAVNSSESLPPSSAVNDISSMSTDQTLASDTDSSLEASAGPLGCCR
c-Jun N-terminal kinase (Mus musculus), sequence (Q91Y86 whole entry, looked up): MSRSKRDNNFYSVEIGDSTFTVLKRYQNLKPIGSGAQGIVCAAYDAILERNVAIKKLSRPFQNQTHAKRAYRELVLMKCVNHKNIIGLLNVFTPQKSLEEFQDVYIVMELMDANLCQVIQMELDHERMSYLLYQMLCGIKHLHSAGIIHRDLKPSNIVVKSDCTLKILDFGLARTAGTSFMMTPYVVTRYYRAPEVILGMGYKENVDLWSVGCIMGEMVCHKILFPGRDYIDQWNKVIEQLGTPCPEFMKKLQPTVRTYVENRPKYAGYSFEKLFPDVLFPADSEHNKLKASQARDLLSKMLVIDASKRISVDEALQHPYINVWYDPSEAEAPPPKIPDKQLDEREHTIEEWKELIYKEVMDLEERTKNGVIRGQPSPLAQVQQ
c-Jun N-terminal kinase (Mus musculus), sequence (Q9WTU6 whole entry, looked up): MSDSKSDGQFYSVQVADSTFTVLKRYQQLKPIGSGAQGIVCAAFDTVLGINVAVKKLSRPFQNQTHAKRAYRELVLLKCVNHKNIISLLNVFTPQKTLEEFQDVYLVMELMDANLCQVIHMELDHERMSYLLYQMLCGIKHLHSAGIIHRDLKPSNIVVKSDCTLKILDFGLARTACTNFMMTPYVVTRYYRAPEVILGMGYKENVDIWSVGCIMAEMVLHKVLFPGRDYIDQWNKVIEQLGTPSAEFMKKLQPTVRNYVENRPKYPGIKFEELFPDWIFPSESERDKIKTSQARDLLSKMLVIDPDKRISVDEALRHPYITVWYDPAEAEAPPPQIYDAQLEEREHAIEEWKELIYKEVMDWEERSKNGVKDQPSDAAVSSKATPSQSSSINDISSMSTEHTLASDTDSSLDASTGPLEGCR

For Cc1c(C(=O)C(=O)NC2CCC(O)CC2)nn(-c2ccc(Cl)cc2Cl)c1-c1ccc(Cl)cc1 (stereo unspecified), the viability at 24 h, 5 µM [1] was < 80%.
With CCCNC(=O)C(=O)c1nn(-c2ccc(Cl)cc2Cl)c(-c2ccc(Cl)cc2)c1C the viability at 24 h, 5 µM [1] was < 80%.
In the case of Cc1c(C(=O)C(=O)N2CCCC2)nn(-c2ccc(Cl)cc2Cl)c1-c1ccc(Cl)cc1, the viability at 24 h, 5 µM [1] is reported as < 80%.
In the case of CCCCCCNC(=O)C(=O)c1nn(-c2ccc(Cl)cc2Cl)c(-c2ccc(Cl)cc2)c1C, the viability at 24 h, 5 µM [1] is reported as < 80%.
With Cc1c(C(=O)C(=O)NC2CCCCCC2)nn(-c2ccc(Cl)cc2Cl)c1-c1ccc(Cl)cc1 the viability at 24 h, 5 µM [1] was < 80%.
In the case of CCCCCCCCNC(=O)C(=O)c1nn(-c2ccc(Cl)cc2Cl)c(-c2ccc(Cl)cc2)c1C, the viability at 24 h, 5 µM [1] is reported as < 80%.
With Cc1c(C(=O)C(=O)NC23CC4CC(CC(C4)C2)C3)nn(-c2ccc(Cl)cc2Cl)c1-c1ccc(Cl)cc1 the viability at 24 h, 5 µM [1] was < 80%.
In the case of Cc1c(C(=O)C(=O)NC2CCCCC2)nn(-c2ccc(Cl)cc2Cl)c1-c1ccc(Cl)cc1, the viability at 24 h, 10 µM [2] is reported as < 80%, the viability at 24 h, 5 µM [1] is reported as 96.8% and the inhibition at 5 µM [3] is reported as 87.4%.
For Cc1c(C(=O)C(=O)N2CCN(C)CC2)nn(-c2ccc(Cl)cc2Cl)c1-c1ccc(Cl)cc1, the viability at 24 h, 10 µM [2] was ≤ 80%, the viability at 24 h, 5 µM [1] was 95.2% and the inhibition at 10 µM [4] was 48%. It also gave an inhibition at 5 µM [3] of 38.1%.
With Cc1c(C(=O)C(=O)N2CCOCC2)nn(-c2ccc(Cl)cc2Cl)c1-c1ccc(Cl)cc1 the inhibition [5] was “Dose-Dependent Effect”, the Activity [6] was “Dose-Dependent Effect” and the Activity [7] was “Dose-Dependent Effect”. The viability at 24 h, 10 µM [2] was 98.7%, the inhibition [8] was “Dose-Dependent Effect” and the inhibition [9] was “inactive”. For the same compound, the inhibition [10] was “inactive”, the Activity [11] was “Dose-Dependent Effect” and the Activity [12] was “Dose-Dependent Effect”. For the same compound, the viability at 24 h, 5 µM [1] was 98%, the inhibition at 10 µM [4] was 49.7% and the Activity [13] was “Dose-Dependent Effect”. For the same compound, the Activity [14] was “Dose-Dependent Effect”, the IC50 [15] was 4.71 µM and the Activity [16] was “Dose-Dependent Effect”. The inhibition [17] was “Dose-Dependent Effect” and the inhibition at 5 µM [3] was 26.1%.
In the case of Cc1c(C(=O)C(=O)NCC(C)C)nn(-c2ccc(Cl)cc2Cl)c1-c1ccc(Cl)cc1, the viability at 24 h, 5 µM [1] is reported as < 80%.
Compound Cc1c(C(=O)C(=O)NCCO)nn(-c2ccc(Cl)cc2Cl)c1-c1ccc(Cl)cc1 has a viability at 24 h, 10 µM [2] of 93.6%, a viability at 24 h, 5 µM [1] of 94.2% and an inhibition at 10 µM [4] of 73.4%. For the same compound, the IC50 [15] was 5.08 µM and the inhibition at 5 µM [3] was 62.8%.
Cc1c(C(=O)C(=O)N2CCSCC2)nn(-c2ccc(Cl)cc2Cl)c1-c1ccc(Cl)cc1 gave a viability at 24 h, 10 µM [2] of 96.5%, a viability at 24 h, 5 µM [1] of 99.6% and an inhibition at 10 µM [4] of 58.3%. For the same compound, the IC50 [15] was 5.28 µM and the inhibition at 5 µM [3] was 13.5%.
In the case of Cc1c(C(=O)C(=O)NC2CCCC2)nn(-c2ccc(Cl)cc2Cl)c1-c1ccc(Cl)cc1, the viability at 24 h, 5 µM [1] is reported as < 80%.
Compound Cc1c(C(=O)NN2CCCCC2)nn(-c2ccc(Cl)cc2Cl)c1-c1ccc(Cl)cc1 [RIMONABANT] has a viability at 24 h, 10 µM [2] of 91.2%, a viability at 24 h, 5 µM [1] of 99.3% and an inhibition at 10 µM [4] of 43.9%. For the same compound, the IC50 [15] was 16.2 µM and the inhibition at 5 µM [3] was 21.2%.
For CCNC(=O)C(=O)c1nn(-c2ccc(Cl)cc2Cl)c(-c2ccc(Cl)cc2)c1C, the viability at 24 h, 10 µM [2] was < 80%, the viability at 24 h, 5 µM [1] was 86.4% and the inhibition at 5 µM [3] was 63.7%.
With CCCCNC(=O)C(=O)c1nn(-c2ccc(Cl)cc2Cl)c(-c2ccc(Cl)cc2)c1C the viability at 24 h, 5 µM [1] was < 80%.
In the case of Cc1c(C(=O)C(=O)N2CCCCCC2)nn(-c2ccc(Cl)cc2Cl)c1-c1ccc(Cl)cc1, the viability at 24 h, 5 µM [1] is reported as < 80%.
For Cc1c(C(=O)C(=O)NC(C)C)nn(-c2ccc(Cl)cc2Cl)c1-c1ccc(Cl)cc1, the viability at 24 h, 5 µM [1] was < 80%.
With CCCCCCCNC(=O)C(=O)c1nn(-c2ccc(Cl)cc2Cl)c(-c2ccc(Cl)cc2)c1C the viability at 24 h, 5 µM [1] was < 80%.
In the case of Cc1c(C(=O)C(=O)N2CCCCC2)nn(-c2ccc(Cl)cc2Cl)c1-c1ccc(Cl)cc1, the viability at 24 h, 10 µM [2] is reported as 80%, the viability at 24 h, 5 µM [1] is reported as 98.2% and the inhibition at 10 µM [4] is reported as 50.1%. For the same compound, the IC50 [15] was 5.82 µM and the inhibition at 5 µM [3] was 20.3%.
In the case of Cc1c(C(=O)C(=O)NCCCO)nn(-c2ccc(Cl)cc2Cl)c1-c1ccc(Cl)cc1, the viability at 24 h, 5 µM [1] is reported as < 80%.
For Cc1c(C(=O)C(=O)NC(C)(C)C)nn(-c2ccc(Cl)cc2Cl)c1-c1ccc(Cl)cc1, the viability at 24 h, 5 µM [1] was < 80%.
For CCCCCNC(=O)C(=O)c1nn(-c2ccc(Cl)cc2Cl)c(-c2ccc(Cl)cc2)c1C, the viability at 24 h, 5 µM [1] was < 80%.
With Cc1c(C(=O)C(=O)N2CCNCC2)nn(-c2ccc(Cl)cc2Cl)c1-c1ccc(Cl)cc1 the viability at 24 h, 5 µM [1] was < 80%.
For Cc1c(C(=O)C(=O)N2CCC(O)CC2)nn(-c2ccc(Cl)cc2Cl)c1-c1ccc(Cl)cc1, the viability at 24 h, 5 µM [1] was < 80%.
In the case of Cc1c(C(=O)C(=O)NN2CCCCC2)nn(-c2ccc(Cl)cc2Cl)c1-c1ccc(Cl)cc1, the viability at 24 h, 5 µM [1] is reported as < 80%.
